Patent US5189055A, “Phenylpyrrolic compounds used as drugs, their preparation and application” (Centre National de la Recherche Scientifique (CNRS), priority 1988, dated 1993)

How the values were obtained:
Vero cells = assay: Cytotoxicity / cytostasis test on the Vero line, % inhibition of proliferation (crystal violet); type: cell-based, monkey; details: 72 hours
Description: (§1) The cytotoxicity studies were carried out, on the one hand on the Vero line (normal monkey kidney cell), Table I, and on the other hand on the KB line (human carcinoma of the nasopharynx), Table II, according to the following method:
(§2) The products were introduced at the time of culturing, which is maintained for 72 hours. The products are tested at 100, 80, 40, 20 and 10 μm [sic]. […] The percentage values for inhibition of cell proliferation were measured by a colorimetric method with crystal violet, relative to control cultures containing DMSO (≤1%).

KB cells [1] = assay: Cytotoxicity / cytostasis test on the KB line, % inhibition of proliferation (crystal violet); type: cell-based, human; details: for % inhibition of proliferation: KB cells, 72 hours
Description: as §1, §2

KB cells [2] = assay: as above; type: cell-based, human; details: 5 μm [sic], 72 hours
tubulin = details: natural substances binding to tubulin receptor sites; cited from earlier work

SMILES | % inhibition of proliferation (Vero cells; 10 μm [sic]) [%] | % inhibition of proliferation (Vero cells; 20 μm [sic]) [%] | % inhibition of proliferation (Vero cells; 40 μm [sic]) [%] | % inhibition of proliferation (Vero cells; 80 μm [sic]) | % inhibition of proliferation (Vero cells; 100 μm [sic]) | % inhibition of proliferation (KB cells [1]; 10 μm [sic]) [%] | % inhibition of proliferation (KB cells [1]; 20 μm [sic]) [%] | % inhibition of proliferation (KB cells [1]; 40 μm [sic]) [%] | % inhibition of proliferation (KB cells [1]; 80 μm [sic]) [%] | % inhibition of proliferation (KB cells [1]; 100 μm [sic]) [%] | selectivity with respect to the KB line (KB cells [1]; at low concentration, KB versus Vero) | % inhibition of proliferation (KB cells [2]) [%] | inhibition of tubulin polymerization (tubulin) | spiralization of tubulin (tubulin)
CCOC(=O)c1[nH]cc(C)c1-c1ccccc1 [(1), Ethyl 4-methyl-3-phenyl-2-pyrrolecarboxylate] | 0 | 0 | 20 | 46% | 63% | 0 | 0 | 0 | 35 | 43 |  |  |  | 
COC(=O)c1[nH]cc(C)c1-c1cccc([N+](=O)[O-])c1 [(2), Methyl 4-methyl-3-(3'-nitrophenyl)-2-pyrrolecarboxylate] | 0 | 3 | 38 | 75% | 77% | 0 | 0 | 10 | 50 | 72 |  |  |  | 
Cc1c[nH]c2c(=O)[nH]c3ccccc3c12 [(4)] | 0 | 0 | 45 | 49-70% | 69-84% | 0 | 72 | 100 | 60 | 68 |  |  |  | 
CCOC(=O)c1[nH]cc(C)c1-c1ccccc1NC(=O)CNC(=O)OCc1ccccc1 [(6), Ethyl 3-[2'-(N-benzyloxycarbonylglycylamido)phenyl]-4-methyl-2-pyrrolecarboxylat] | 0 | 0 | 4 | 48% | 78% | 0 | 22 | 31 | 52 | 68 |  |  |  | 
Cc1cn(C)c(C(=O)N(C(=O)NC2CCCCC2)C2CCCCC2)c1-c1ccccc1[N+](=O)[O-] [(10), 1,4-Dimethyl-3-(2'-nitrophenyl)pyrrole-2(N,N'-cyclohexylureidocarboxamide)] | 0 | 0 | 25 | 100% | 100% | 0 | 0 | 0 | 27 | 45 |  |  |  | 
CCCCc1c(C)c(-c2ccccc2N(C)C(=O)OCc2ccccc2)c(CCC2OCCO2)n1C [(22), 5-Butyl-1,4-dimethyl-2-(1,4-dioxa-2-ethylcarbaldehyde)-3-[2'-(N-benzyloxycarbonyl-N-methylamino)phenyl]pyrrole] | 0 | 0 | 0 | 54% | 54% | 0 | 0 | 0 | 44 | 59 |  |  |  | 
CCCCc1c(C)c(-c2ccccc2NC)c(CCC2OCCO2)n1C [(23), 5-Butyl-1,4-dimethyl-2-(1,4-dioxa-2-ethylcarbaldehyde)-3-[2'-(N-methylamino)phenyl]pyrrole] | 0 | 0 | 25 | 69% | 80% | 48 | 66 | 81 | 94 | 100 | some degree of selectivity at low concentration with respect to the KB line | 4 |  | 
COc1cc([C@@H]2c3cc4c(cc3[C@H](O)[C@H]3COC(=O)[C@H]23)OCO4)cc(OC)c1OC [podophyllotoxin] |  |  |  |  |  |  |  |  |  |  |  |  | inhibit its polymerization | 
CC[C@]1(O)C[C@@H]2CN(CCc3c([nH]c4ccccc34)[C@@](C(=O)OC)(c3cc4c(cc3OC)N(C)[C@H]3[C@@](O)(C(=O)OC)[C@H](OC(C)=O)[C@]5(CC)C=CCN6CC[C@]43[C@@H]65)C2)C1 [vinblastine] |  |  |  |  |  |  |  |  |  |  |  |  | inhibit its polymerization | can cause its spiralization
CC[C@]1(O)C[C@H]2CN(CCc3c([nH]c4ccccc34)[C@@](C(=O)OC)(c3cc4c(cc3OC)N(C=O)[C@H]3[C@@](O)(C(=O)OC)[C@H](OC(C)=O)[C@]5(CC)C=CCN6CC[C@]43[C@@H]65)C2)C1 [vincristine] |  |  |  |  |  |  |  |  |  |  |  |  | inhibit its polymerization | 
